Reference: publication PMC10819888, “Benzimidazole-Based Derivatives as Apoptotic Antiproliferative Agents: Design, Synthesis, Docking, and Mechanistic Studies” (Molecules, 2024)
Read-outs that look alike come from different tables or passages of the source.

Experiments:
RPMI-8226 = assay: NCI-60 five-dose assay; type: cell-based, human; conditions: RPMI-8226, Leukemia
K-562 = assay: NCI-60 five-dose assay; type: cell-based, human; conditions: K-562, Leukemia
EKVX = assay: NCI-60 five-dose assay; type: cell-based, human; conditions: EKVX, Non-Small Cell Lung Cancer
NCI-H322M = assay: NCI-60 five-dose assay; type: cell-based, human; conditions: NCI-H322M, Non-Small Cell Lung Cancer
HCC-2998 = assay: NCI-60 five-dose assay; type: cell-based, human; conditions: HCC-2998, Colon Cancer
HCT-15 = assay: NCI-60 five-dose assay; type: cell-based, human; conditions: HCT-15, Colon Cancer
SF-268 = assay: NCI-60 five-dose assay; type: cell-based, human; conditions: SF-268, CNS Cancer
SF-295 = assay: NCI-60 five-dose assay; type: cell-based, human; conditions: SF-295, CNS Cancer
LOX IMVI = assay: NCI-60 five-dose assay; type: cell-based, human; conditions: LOX IMVI, Melanoma
OVCAR-5 = assay: NCI-60 five-dose assay; type: cell-based, human; conditions: OVCAR-5, Ovarian Cancer
NCI/ADR-RES = assay: NCI-60 five-dose assay; type: cell-based, human; conditions: NCI/ADR-RES, Ovarian Cancer
786-0 = assay: NCI-60 five-dose assay; type: cell-based, human; conditions: 786-0, Renal Cancer
UO-31 = assay: NCI-60 five-dose assay; type: cell-based, human; conditions: UO-31, Renal Cancer
PC-3 = assay: NCI-60 five-dose assay; type: cell-based, human; conditions: PC-3, Prostate Cancer
MDA-MB-231 = assay: NCI-60 five-dose assay; type: cell-based, human; conditions: MDA-MB-231, Breast Cancer
Leukemia subpanel = assay: NCI-60 five-dose assay, subpanel; type: cell-based, human; conditions: Leukemia
CNS Cancer subpanel = assay: NCI-60 five-dose assay, subpanel; type: cell-based, human; conditions: CNS Cancer
Ovarian Cancer subpanel = assay: NCI-60 five-dose assay, subpanel; type: cell-based, human; conditions: Ovarian Cancer
[1] = system: full panel of 60 human tumor cell lines; assay: NCI-60 five-dose assay, full panel; type: cell-based
EGFR = EGFR (Homo sapiens, UniProt P00533); assay: EGFR inhibitory assay
[2] = Homo sapiens, read-out: GI50 Conc. per Cell Line
[3] = Homo sapiens, read-out: LC50 (the source's name)
[4] = Homo sapiens, average sensitivity of all subpanel cell lines, read-out: GI50 Subpanel MID b

EGFR, sequence (P00533 669-1210): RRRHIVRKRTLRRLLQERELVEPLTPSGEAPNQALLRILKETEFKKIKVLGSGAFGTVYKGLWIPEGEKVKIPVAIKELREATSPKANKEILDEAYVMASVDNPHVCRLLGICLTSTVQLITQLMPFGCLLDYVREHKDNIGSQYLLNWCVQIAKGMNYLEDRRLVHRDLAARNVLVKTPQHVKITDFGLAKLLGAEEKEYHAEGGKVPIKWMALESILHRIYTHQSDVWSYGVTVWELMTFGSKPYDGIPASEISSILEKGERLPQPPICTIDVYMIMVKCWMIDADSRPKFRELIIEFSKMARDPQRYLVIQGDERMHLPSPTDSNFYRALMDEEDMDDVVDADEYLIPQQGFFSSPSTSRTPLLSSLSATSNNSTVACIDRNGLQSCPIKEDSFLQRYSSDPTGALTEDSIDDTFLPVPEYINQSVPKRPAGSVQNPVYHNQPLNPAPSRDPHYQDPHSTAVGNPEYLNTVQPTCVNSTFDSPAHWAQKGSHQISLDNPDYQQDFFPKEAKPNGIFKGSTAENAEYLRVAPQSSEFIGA

With `COc1ccc(C=NNC(=O)c2ccc3[nH]c(-c4ccc(Cl)cc4)nc3c2)cc1` [Compound 4g, N′-(4-Methoxybenzylidene)-2-(4-chlorophenyl)-1H-benzimidazole-5-carbohydrazide] the GI50 (RPMI-8226; [2]) was 0.997 µM, the CC50 (RPMI-8226; [3]) was > 100 µM and the TGI (RPMI-8226) was 4.77 µM. The GI50 (K-562; Homo sapiens, K562, read-out: GI50 Conc. per Cell Line) was 2.69 µM, the CC50 (K-562; Homo sapiens, K562, read-out: LC50 (the source's name)) was > 100 µM and the TGI (K-562) was 11.20 µM. For the same compound, the TGI (EKVX) was 5.84 µM, the GI50 (EKVX; [2]) was 2.11 µM and the CC50 (EKVX; [3]) was 36.6 µM. It also gave a GI50 (NCI-H322M; [2]) of 2.49 µM, a CC50 (NCI-H322M; [3]) of 55.4 µM and a TGI (NCI-H322M) of 7.20 µM. The TGI (HCC-2998) was 6.44 µM, the GI50 (HCC-2998; [2]) was 2.57 µM and the CC50 (HCC-2998; [3]) was 37.8 µM. The TGI (HCT-15) was 12.80 µM, the GI50 (HCT-15; [2]) was 3.24 µM and the CC50 (HCT-15; [3]) was 82 µM. The GI50 (SF-268; [2]) was 2.09 µM, the CC50 (SF-268; [3]) was 20.8 µM and the TGI (SF-268) was 5.10 µM. It also gave a GI50 (SF-295; [2]) of 2.23 µM, a CC50 (SF-295; [3]) of 15 µM and a TGI (SF-295) of 5.05 µM. For the same compound, the GI50 (LOX IMVI; [2]) was 2.19 µM, the CC50 (LOX IMVI; [3]) was 7.34 µM and the TGI (LOX IMVI) was 4.01 µM. It also gave a GI50 (OVCAR-5; [2]) of 2.35 µM, a CC50 (OVCAR-5; [3]) of 33.5 µM and a TGI (OVCAR-5) of 6.89 µM. The GI50 (NCI/ADR-RES; [2]) was 7.81 µM, the CC50 (NCI/ADR-RES; [3]) was > 100 µM and the TGI (NCI/ADR-RES) was >100 µM. The TGI (786-0) was 3.67 µM, the GI50 (786-0; [2]) was 1.93 µM and the CC50 (786-0; [3]) was 6.98 µM. For the same compound, the GI50 (UO-31; [2]) was 1.86 µM, the CC50 (UO-31; [3]) was 25.7 µM and the TGI (UO-31) was 6.38 µM. It also gave an LC50 (PC-3; Homo sapiens) of 8.55 µM, a GI50 (PC-3; [2]) of 1.65 µM and a TGI (PC-3) of 3.76 µM. For the same compound, the GI50 (MDA-MB-231; [2]) was 2.42 µM, the CC50 (MDA-MB-231; [3]) was 18.8 µM and the TGI (MDA-MB-231) was 5.45 µM. The GI50 (Leukemia subpanel; [4]) was 2.88 µM, the “GI50 Selectivity Ratio (MID a/MID b)” value (Leukemia subpanel) was 0.87 and the “GI50 Selectivity Ratio (MID a/MID b)” value (CNS Cancer subpanel) was 1.15. For the same compound, the GI50 (CNS Cancer subpanel; [4]) was 2.19 µM, the GI50 (Ovarian Cancer subpanel; [4]) was 3.05 µM and the “GI50 Selectivity Ratio (MID a/MID b)” value (Ovarian Cancer subpanel) was 0.83. The GI50 ([1]; average sensitivity of all cell lines, read-out: MID a (GI50)) was 2.52 µM, the GI50 ([1]; five-dose assay, range over cell lines, read-out: GI50 range over the examined cell lines) was 0.997 to 7.81 µM and the IC50 (EGFR) was 0.27 ± 0.03 µM.
